From patent US20150010928A1, “MEANS AND METHODS FOR ASSESSING AN ENDOCRINE DISEASE OR DISORDER” (priority 2012, published 2015)
Marks after values point to notes of the source that are not given here.

Test system: male rats
Test: Plasma metabolite profiling (GC-MS, LC-MS, SPE-LC-MS) in male rats dosed once daily over 28 days (OECD 407)
Type: in vivo, rat
Details: high dose; for Alanine, ratio versus control / Androstenedione, ratio versus control / Cholesterol, ratio versus control / Glycine, ratio versus control / Heptadecanoic acid (C17:0), ratio versus control / Testosterone, ratio versus control / Threonine, ratio versus control / Uric acid, ratio versus control / alpha-Tocopherol, ratio versus control: male rats, plasma
Description: Each dose group in the studies consisted of five rats per sex. Additional groups of each 5 male and female animals served as controls. […] All animals of the animal population were kept under the same constant temperature (20-24±3° C.) and the same constant humidity (30-70%). The animals of the animal population were fed ad libitum. The food to be used was essentially free of chemical or microbial contaminants. Drinking water was also offered ad libitum. Accordingly, the water was free of chemical and microbial contaminants as laid down in the European Drinking Water Directive 98/83/EG. The illumination period was 12 hours light followed by 12 hours darkness (12 hours light, from 6:00 to 18:00, and 12 hours darkness, from 18:00 to 6:00). […] The test substances (compounds) in the Tables 1 to 17 below were dosed and administered as described in the Table 18.
In the morning of day 7, 14, and 28, blood was taken from the retroorbital venous plexus from fasted anaesthetized animals. From each animal, 1 ml of blood was collected with EDTA as anticoagulant. The samples were centrifuged for generation of plasma. All plasma samples were covered with a N2 atmosphere and then stored at −80° C. until analysis.
For mass spectrometry-based metabolite profiling analyses plasma samples were extracted and a polar and a non-polar (lipid) fraction was obtained. For GC-MS analysis, the non-polar fraction was treated with methanol under acidic conditions to yield the fatty acid methyl esters. Both fractions were further derivatised with O-methyl-hydroxyamine hydrochloride and pyridine to convert Oxogroups to O-methyloximes and subsequently with a silylating agent before analysis. In LC-MS analysis, both fractions were reconstituted in appropriate solvent mixtures. HPLC was performed by gradient elution on reversed phase separation columns. Mass spectrometric detection which allows target and high sensitivity MRM (Multiple Reaction Monitoring) profiling in parallel to a full screen analysis was applied as described in WO2003073464.
Steroids and their metabolites were measured by online SPE-LC-MS (Solid phase extraction-LC-MS).
Following comprehensive analytical validation steps, the data for each analyte were normalized against data from pool samples. These samples were run in parallel through the whole process to account for process variability. The significance of treatment group values specific for sex, treatmentduration and metabolite was determined by comparing means of the treated groups to the means of the respective untreated control groups using WELCH-test and quantified with treatment ratios versus control and p-values.
The identification of the most important biomarkers per toxicity pattern was done by a ranking of the analytes in the tables below. Therefore the metabolic changes in reference treatments of a given pattern (shown in the table) were compared with changes of the same metabolite in other unrelated treatments. […] The maximum absolute value of the respective TVALUE was taken to indicate the most important metabolite for the pattern.

## C#C[C@]1(O)CC[C@H]2[C@@H]3CCc4cc(O)ccc4[C@H]3CC[C@@]21C [17-alpha-Ethynylestradiol]
m7, Table 14b
  Cholesterol: 0.19
  Choline plasmalogen No 02: 0.28
  Lignoceric acid (C24:0): 0.2
  Sphingomyelin (d18:1, C16:0): 0.2
  Sphingomyelin (d18:2, C16:0): 0.19
  erythro-Sphingosine (d18:1): 0.09
m7, Table 12d
  3,4-Dihydroxyphenylacetic acid (DOPAC): 1.01
  Choline plasmalogen No 02: 0.28 *
  Choline plasmalogen No 03: 0.41 *
  Coenzyme Q10: 0.16 *
  Elaidic acid (C18:trans[9]1): 0.54 *
  Glycerol phosphate, lipid fraction: 0.22 *
  Glycerol, polar fraction: 0.68 *
  Lysophosphatidylcholine (C17:0): 0.38 *
  Lysophosphatidylcholine (C18:0): 0.77 *
  Lysophosphatidylcholine (C20:4): 0.78 *
  Lysophosphatidylethanolamine (C22:0): 0.28 *
  Phosphatidylcholine (C18:0, C20:3): 0.21 *
  Phosphatidylcholine No 04: 0.17 *
  Sphingomyelin (d18:1, C16:0): 0.32 *
  Sphingomyelin (d18:2, C16:0): 0.19 *
  Sphingomyelin (d18:2,C18:0): 0.24 *
  Threonic acid: 0.47 *
  Tyrosine: 1.09
  beta-Sitosterol: 0.3 *
  myo-Inositol, lipid fraction: 0.22 *
m14, Table 14b
  Cholesterol: 0.24
  Choline plasmalogen No 02: 0.46
  Lignoceric acid (C24:0): 0.21
  Sphingomyelin (d18:1, C16:0): 0.37
  Sphingomyelin (d18:2, C16:0): 0.24
  erythro-Sphingosine (d18:1): 0.13
m14, Table 12d
  3,4-Dihydroxyphenylacetic acid (DOPAC): 0.58 *
  Choline plasmalogen No 02: 0.46 *
  Choline plasmalogen No 03: 0.43 *
  Coenzyme Q10: 0.31 *
  Elaidic acid (C18:trans[9]1): 0.63 *
  Glycerol phosphate, lipid fraction: 0.31 *
  Glycerol, polar fraction: 0.84
  Lysophosphatidylcholine (C17:0): 0.58 *
  Lysophosphatidylcholine (C18:0): 0.84 *
  Lysophosphatidylcholine (C20:4): 0.83 *
  Lysophosphatidylethanolamine (C22:0): 0.45 *
  Phosphatidylcholine (C18:0, C20:3): 0.47 *
  Phosphatidylcholine No 04: 0.42 *
  Sphingomyelin (d18:1, C16:0): 0.4 *
  Sphingomyelin (d18:2, C16:0): 0.24 *
  Sphingomyelin (d18:2,C18:0): 0.18 *
  Threonic acid: 0.52 *
  Tyrosine: 0.96
  beta-Sitosterol: 0.38 *
  myo-Inositol, lipid fraction: 0.29 *
m28, Table 14b
  Cholesterol: 0.39
  Choline plasmalogen No 02: 0.55
  Lignoceric acid (C24:0): 0.43
  Sphingomyelin (d18:1, C16:0): 0.44
  Sphingomyelin (d18:2, C16:0): 0.34
  erythro-Sphingosine (d18:1): 0.24
m28, Table 12d
  3,4-Dihydroxyphenylacetic acid (DOPAC): 0.96
  Choline plasmalogen No 02: 0.55 *
  Choline plasmalogen No 03: 0.48 *
  Coenzyme Q10: 0.37 *
  Elaidic acid (C18:trans[9]1): 0.48 *
  Glycerol phosphate, lipid fraction: 0.29 *
  Glycerol, polar fraction: 0.63 *
  Lysophosphatidylcholine (C17:0): 0.67 *
  Lysophosphatidylcholine (C18:0): 0.89 *
  Lysophosphatidylcholine (C20:4): 0.88 *
  Lysophosphatidylethanolamine (C22:0): 0.54 *
  Phosphatidylcholine (C18:0, C20:3): 0.79 *
  Phosphatidylcholine No 04: 0.64 *
  Sphingomyelin (d18:1, C16:0): 0.65 *
  Sphingomyelin (d18:2, C16:0): 0.34 *
  Sphingomyelin (d18:2,C18:0): 0.41 *
  Threonic acid: 0.54 *
  Tyrosine: 0.83 *
  beta-Sitosterol: 0.7 *
  myo-Inositol, lipid fraction: 0.53 *

## CCNC(=O)[C@@H]1CCCN1C(=O)[C@H](CCCNC(=N)N)NC(=O)[C@H](CC(C)C)NC(=O)[C@@H](COC(C)(C)C)NC(=O)[C@H](Cc1ccc(O)cc1)NC(=O)[C@H](CO)NC(=O)[C@H](Cc1c[nH]c2ccccc12)NC(=O)[C@H](Cc1cnc[nH]1)NC(=O)[C@@H]1CCC(=O)N1 [Buserelin acetate a.c., Buserelin acetate]
Day 7
  Alanine, ratio versus control: 0.67 *
  Androstenedione, ratio versus control: 0.17 *
  Cholesterol, ratio versus control: 0.9 *
  Glycine, ratio versus control: 0.83 *
  Heptadecanoic acid (C17:0), ratio versus control: 0.81 *
  Testosterone, ratio versus control: 0.11 *
  Threonine, ratio versus control: 1.01 *
  Uric acid, ratio versus control: 0.59 *
  alpha-Tocopherol, ratio versus control: 0.88 *
Day 14
  Alanine, ratio versus control: 0.74 *
  Androstenedione, ratio versus control: 0.5 *
  Cholesterol, ratio versus control: 0.84 *
  Glycine, ratio versus control: 0.91^
  Heptadecanoic acid (C17:0), ratio versus control: 0.94 *
  Testosterone, ratio versus control: 0.19 *
  Threonine, ratio versus control: 0.92 *
  Uric acid, ratio versus control: 076 *
  alpha-Tocopherol, ratio versus control: 0.93 *
Day 28
  Alanine, ratio versus control: 0.78^
  Androstenedione, ratio versus control: 0.35 *
  Cholesterol, ratio versus control: 0.91^
  Glycine, ratio versus control: 0.91 *
  Heptadecanoic acid (C17:0), ratio versus control: 0.91 *
  Testosterone, ratio versus control: 0.08 *
  Threonine, ratio versus control: 1.01^
  Uric acid, ratio versus control: 0.85 *
  alpha-Tocopherol, ratio versus control: 1.03^
